The species entered for data set [1] is Homo sapiens. Description: Selectivity index, ratio of IC50 for inhibition of human HDAC1 to IC50 for inhibition of human HDAC6.
In data set [2] the test system is PC-12. Description: Neuroprotective activity against H2O2-induced oxidative stress in rat PC-12 cells assessed as increase in cell viability at 5 uM incubated for 24 hrs. It is filed as functional, cell-based.
In data set [3] the target is T1, Protein deacetylase HDAC6 (Homo sapiens, UniProt Q9UBN7).
T1 sequence (Q9UBN7 whole entry): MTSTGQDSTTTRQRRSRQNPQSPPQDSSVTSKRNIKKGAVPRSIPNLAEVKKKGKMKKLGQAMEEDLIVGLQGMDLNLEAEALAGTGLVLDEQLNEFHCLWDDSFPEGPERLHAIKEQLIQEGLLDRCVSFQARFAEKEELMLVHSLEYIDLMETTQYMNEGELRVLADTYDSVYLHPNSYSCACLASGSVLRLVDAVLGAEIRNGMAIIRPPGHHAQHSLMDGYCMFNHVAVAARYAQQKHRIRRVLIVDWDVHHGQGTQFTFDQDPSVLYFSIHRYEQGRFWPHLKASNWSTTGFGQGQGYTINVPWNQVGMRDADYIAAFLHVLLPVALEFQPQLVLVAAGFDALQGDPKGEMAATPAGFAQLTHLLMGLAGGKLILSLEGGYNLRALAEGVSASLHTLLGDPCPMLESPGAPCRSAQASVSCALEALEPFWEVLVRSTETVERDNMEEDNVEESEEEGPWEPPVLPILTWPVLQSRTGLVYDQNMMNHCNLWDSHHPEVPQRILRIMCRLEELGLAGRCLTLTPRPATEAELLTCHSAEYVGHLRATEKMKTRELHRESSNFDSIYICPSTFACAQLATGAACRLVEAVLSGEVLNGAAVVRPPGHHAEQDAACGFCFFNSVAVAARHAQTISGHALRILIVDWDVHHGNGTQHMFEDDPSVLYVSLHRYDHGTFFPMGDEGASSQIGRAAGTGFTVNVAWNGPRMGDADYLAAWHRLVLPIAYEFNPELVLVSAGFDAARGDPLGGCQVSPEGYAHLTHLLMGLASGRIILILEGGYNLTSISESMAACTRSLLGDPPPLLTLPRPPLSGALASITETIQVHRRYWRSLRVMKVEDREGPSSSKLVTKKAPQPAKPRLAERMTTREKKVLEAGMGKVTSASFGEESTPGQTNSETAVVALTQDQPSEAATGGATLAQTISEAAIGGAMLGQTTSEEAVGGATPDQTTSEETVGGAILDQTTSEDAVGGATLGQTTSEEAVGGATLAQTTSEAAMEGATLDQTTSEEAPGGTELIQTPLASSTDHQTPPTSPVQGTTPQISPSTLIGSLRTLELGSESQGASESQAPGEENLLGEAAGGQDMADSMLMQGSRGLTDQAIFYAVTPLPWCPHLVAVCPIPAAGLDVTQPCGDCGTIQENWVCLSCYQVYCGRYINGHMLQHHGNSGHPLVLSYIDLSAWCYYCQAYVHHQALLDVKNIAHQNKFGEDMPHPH
Description: Inhibition of human HDAC6 using RHKKAc as substrate by fluorescence based assay.

The target of data set [4] is Histone deacetylase 1 (Homo sapiens, UniProt Q13547). Description: Inhibition of human HDAC1 using RHKKAc as substrate by fluorescence based assay.
Sequence of Histone deacetylase 1 (Q13547 whole entry): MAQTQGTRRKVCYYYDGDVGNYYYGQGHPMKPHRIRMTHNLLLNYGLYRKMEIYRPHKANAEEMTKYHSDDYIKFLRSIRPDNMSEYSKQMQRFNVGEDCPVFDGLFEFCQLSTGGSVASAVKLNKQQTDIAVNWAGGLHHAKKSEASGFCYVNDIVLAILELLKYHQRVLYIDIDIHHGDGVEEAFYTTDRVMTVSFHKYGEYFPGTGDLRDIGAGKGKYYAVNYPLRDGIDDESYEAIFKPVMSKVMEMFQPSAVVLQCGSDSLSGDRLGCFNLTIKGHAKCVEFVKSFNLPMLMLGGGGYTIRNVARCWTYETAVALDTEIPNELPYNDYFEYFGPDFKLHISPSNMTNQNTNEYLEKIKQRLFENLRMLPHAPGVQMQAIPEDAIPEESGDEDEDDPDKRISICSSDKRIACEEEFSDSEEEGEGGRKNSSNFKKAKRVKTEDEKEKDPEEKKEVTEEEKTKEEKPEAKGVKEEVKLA
For data set [5], the system named is PC-12. Kind of data set: Induction of neurite outgrowth in NGF-induced rat PC-12 cells assessed as increase in percentage of neurite bearing cells at 3 uM relative to control. Type of data set: functional.
The subject of data set [6] is PC-12. Kind of data set: Induction of neurite outgrowth in NGF-induced rat PC-12 cells. Type of data set: functional, cell-based. As to conditions: dose 1-10 µM.
In data set [7] the test system is PC-12. Kind of data set: Neuroprotective activity against H2O2-induced oxidative stress in rat PC-12 cells assessed as cell viability at 5 uM incubated for 24 hrs (reference value: 62.5 %). As to conditions: read-out: Activity. Type of data set: functional.
Data set [8] deals with PC-12. Kind of data set: Inhibition of HDAC6 in rat PC-12 cells assessed as increase in alpha-tubulin acetylation incubated for 24 hrs by Western blot analysis. Type of data set: cell-based. The settings on record: dose 0.1-1 µM. On the technique in general: A western blot detects proteins with antibodies after separation by electrophoresis.
Data set [9] concerns the target Histone deacetylase 5 (Homo sapiens, UniProt Q9UQL6). Kind of data set: Inhibition of human HDAC5 using Boc-Lys(trifluoroacetyl)-AMC as substrate by fluorescence based assay.
Data set [10] addresses Histone deacetylase 2 (Homo sapiens, UniProt Q92769). Description: Inhibition of human HDAC2 using RHKKAc as substrate by fluorescence based assay.
Data set [11] addresses Histone deacetylase 3/Nuclear receptor corepressor 2 (HDAC3/NCoR2) (Homo sapiens, UniProt O15379). Description: Inhibition of human HDAC3/NCOR2 using RHKKAc as substrate by fluorescence based assay. It is filed as protein-complex assay.
Data set [12] has as its target T2, Histone deacetylase 8 (Homo sapiens, UniProt Q9BY41).
T2 sequence (Q9BY41 whole entry): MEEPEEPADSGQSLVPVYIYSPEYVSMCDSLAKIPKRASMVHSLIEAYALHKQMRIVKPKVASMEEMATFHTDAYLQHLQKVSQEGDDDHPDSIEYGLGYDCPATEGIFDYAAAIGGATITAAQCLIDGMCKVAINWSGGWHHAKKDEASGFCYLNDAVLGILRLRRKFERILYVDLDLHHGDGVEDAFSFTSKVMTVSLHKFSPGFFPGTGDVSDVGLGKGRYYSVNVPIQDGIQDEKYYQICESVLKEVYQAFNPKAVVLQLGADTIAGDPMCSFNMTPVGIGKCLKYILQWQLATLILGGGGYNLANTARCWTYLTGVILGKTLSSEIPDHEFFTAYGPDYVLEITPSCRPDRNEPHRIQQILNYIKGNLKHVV
Description: Inhibition of human HDAC8 using RHK(Ac)-K(Ac) as substrate by fluorescence based assay.

Data set [13] in a line: Neurotoxicity in rat PC-12 cells at 1 to 10 uM. It is filed as toxicity, cell-based. As to conditions: pc-12, 10 µM, dose 1-10 µM.

Data on 12 molecules can be found in ChEMBL document CHEMBL5579806, “Re-exploration of tetrahydro-β-carboline scaffold: Discovery of selective histone deacetylase 6 inhibitors with neurite outgrowth-promoting and neuroprotective activities” (Bioorg Med Chem Lett, 2024).

The source made the active and inactive calls. The rule behind the calls is not given here.

Sequence of Histone deacetylase 2 (Q92769 whole entry): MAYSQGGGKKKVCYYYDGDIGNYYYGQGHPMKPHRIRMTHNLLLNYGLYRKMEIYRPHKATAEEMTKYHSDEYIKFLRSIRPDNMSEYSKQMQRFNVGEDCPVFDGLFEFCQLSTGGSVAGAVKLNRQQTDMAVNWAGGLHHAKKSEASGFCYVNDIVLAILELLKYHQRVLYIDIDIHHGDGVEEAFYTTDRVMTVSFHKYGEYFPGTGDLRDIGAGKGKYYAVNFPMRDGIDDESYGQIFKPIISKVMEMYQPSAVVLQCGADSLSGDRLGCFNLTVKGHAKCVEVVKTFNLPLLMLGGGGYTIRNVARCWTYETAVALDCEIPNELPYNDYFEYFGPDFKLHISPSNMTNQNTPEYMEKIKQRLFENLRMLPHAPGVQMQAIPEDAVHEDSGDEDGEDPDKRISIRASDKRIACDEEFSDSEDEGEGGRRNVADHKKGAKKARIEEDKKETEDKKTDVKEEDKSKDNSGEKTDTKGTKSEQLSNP
Sequence of Histone deacetylase 5 (Q9UQL6 whole entry): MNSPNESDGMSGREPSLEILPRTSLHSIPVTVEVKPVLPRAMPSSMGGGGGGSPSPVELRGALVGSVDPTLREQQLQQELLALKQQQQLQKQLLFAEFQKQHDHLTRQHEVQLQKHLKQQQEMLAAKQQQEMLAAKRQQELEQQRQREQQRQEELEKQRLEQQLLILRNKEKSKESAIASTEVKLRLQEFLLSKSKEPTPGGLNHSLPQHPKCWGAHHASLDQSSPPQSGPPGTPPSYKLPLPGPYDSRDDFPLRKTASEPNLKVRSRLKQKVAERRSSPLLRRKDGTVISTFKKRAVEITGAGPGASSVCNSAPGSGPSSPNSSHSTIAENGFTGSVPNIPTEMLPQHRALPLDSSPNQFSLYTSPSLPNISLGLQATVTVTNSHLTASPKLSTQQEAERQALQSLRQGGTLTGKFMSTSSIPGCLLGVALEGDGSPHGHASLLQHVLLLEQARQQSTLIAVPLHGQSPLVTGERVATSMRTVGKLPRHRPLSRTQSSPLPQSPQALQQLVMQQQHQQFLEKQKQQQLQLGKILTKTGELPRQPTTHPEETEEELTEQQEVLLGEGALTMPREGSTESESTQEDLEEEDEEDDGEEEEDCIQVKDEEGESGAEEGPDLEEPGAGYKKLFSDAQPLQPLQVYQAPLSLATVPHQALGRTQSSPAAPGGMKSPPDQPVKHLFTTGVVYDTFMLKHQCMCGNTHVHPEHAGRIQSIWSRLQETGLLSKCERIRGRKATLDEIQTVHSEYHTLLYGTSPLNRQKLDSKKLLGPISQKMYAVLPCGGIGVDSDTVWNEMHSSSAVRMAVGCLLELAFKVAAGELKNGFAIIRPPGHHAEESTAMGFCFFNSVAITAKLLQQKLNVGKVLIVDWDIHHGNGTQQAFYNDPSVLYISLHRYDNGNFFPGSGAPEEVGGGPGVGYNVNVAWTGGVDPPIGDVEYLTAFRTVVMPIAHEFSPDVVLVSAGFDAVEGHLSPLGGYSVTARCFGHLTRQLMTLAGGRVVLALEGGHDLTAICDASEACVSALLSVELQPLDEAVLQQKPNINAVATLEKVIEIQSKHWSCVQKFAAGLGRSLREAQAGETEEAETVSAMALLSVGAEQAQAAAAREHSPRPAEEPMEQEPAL
Sequence of Histone deacetylase 3/Nuclear receptor corepressor 2 (HDAC3/NCoR2) (O15379 whole entry): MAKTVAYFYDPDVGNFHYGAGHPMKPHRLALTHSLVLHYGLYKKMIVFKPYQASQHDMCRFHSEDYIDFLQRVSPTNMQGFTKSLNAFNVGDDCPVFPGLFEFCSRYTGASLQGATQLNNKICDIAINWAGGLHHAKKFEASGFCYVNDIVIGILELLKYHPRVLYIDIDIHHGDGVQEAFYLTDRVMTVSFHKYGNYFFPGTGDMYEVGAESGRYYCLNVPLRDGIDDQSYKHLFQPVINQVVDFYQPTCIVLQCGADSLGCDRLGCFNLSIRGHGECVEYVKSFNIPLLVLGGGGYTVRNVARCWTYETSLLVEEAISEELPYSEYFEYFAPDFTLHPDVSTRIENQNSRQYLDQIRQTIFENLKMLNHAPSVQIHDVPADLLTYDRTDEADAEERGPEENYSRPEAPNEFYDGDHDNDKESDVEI
Sequence of Histone deacetylase 3/Nuclear receptor corepressor 2 (HDAC3/NCoR2) (Q9Y618 whole entry, further chain): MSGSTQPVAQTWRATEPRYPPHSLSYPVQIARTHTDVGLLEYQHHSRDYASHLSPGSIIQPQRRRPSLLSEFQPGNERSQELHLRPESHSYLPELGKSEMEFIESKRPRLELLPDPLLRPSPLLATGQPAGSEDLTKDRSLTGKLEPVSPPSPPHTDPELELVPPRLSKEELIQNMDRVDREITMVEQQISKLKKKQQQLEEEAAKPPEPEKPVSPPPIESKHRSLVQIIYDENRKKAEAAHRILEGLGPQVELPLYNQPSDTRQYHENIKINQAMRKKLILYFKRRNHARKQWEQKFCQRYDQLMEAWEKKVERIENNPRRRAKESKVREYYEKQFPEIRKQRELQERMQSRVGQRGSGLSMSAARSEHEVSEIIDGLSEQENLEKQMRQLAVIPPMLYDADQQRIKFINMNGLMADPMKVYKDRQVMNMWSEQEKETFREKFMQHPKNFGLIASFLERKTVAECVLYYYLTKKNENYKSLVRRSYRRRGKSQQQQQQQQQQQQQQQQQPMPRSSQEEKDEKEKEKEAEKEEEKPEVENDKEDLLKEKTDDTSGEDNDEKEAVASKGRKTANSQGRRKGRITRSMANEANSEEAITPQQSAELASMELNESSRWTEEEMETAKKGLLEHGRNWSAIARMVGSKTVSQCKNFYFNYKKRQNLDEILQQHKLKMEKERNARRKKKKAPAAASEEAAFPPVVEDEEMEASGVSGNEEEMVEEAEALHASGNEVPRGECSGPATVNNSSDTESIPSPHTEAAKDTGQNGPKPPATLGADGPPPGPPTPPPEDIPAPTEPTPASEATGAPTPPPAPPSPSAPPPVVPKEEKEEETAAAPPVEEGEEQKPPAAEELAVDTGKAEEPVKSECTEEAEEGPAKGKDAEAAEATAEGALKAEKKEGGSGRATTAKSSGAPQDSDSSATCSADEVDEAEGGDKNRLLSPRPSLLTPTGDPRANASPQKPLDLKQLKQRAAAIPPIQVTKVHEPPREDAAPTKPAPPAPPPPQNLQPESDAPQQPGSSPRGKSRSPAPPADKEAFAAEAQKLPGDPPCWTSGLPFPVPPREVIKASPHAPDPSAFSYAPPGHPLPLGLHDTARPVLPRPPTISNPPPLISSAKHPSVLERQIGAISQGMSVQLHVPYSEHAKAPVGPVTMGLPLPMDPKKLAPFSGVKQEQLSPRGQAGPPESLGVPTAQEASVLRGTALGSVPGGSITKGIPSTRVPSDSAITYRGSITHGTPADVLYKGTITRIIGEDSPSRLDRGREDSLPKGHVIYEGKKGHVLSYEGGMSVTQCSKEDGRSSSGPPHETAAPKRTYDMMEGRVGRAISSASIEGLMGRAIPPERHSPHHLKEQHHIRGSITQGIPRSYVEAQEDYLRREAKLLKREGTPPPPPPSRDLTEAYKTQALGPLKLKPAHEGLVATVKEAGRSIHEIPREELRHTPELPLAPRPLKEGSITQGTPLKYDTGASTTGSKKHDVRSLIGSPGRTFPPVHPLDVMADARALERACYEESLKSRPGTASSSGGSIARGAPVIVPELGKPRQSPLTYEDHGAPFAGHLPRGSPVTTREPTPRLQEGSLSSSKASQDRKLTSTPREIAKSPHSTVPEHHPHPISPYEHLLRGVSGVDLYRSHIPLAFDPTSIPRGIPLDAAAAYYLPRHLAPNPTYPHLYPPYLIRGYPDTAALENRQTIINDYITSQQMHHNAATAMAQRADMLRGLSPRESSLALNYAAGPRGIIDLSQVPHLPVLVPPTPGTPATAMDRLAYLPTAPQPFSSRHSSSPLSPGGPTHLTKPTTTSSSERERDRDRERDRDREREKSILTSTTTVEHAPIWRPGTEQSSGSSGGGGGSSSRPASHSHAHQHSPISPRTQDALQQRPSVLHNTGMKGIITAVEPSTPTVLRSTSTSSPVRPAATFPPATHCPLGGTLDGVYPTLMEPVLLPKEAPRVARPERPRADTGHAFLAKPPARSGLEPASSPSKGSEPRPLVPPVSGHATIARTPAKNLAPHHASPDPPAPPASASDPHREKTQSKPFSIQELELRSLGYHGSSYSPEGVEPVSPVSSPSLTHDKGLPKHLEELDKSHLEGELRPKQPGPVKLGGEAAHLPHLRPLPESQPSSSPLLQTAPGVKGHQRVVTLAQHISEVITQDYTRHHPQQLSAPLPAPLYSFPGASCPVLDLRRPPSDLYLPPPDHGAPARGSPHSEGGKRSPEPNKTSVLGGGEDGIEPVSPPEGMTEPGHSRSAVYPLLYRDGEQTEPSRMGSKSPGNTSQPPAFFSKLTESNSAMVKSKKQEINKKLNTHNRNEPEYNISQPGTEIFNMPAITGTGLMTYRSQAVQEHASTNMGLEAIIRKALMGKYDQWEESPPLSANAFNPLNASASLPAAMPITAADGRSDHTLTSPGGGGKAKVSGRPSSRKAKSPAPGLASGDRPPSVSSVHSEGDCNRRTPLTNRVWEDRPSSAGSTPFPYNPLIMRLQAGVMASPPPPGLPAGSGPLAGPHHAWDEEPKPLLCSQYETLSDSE

Consider `O=C(NO)c1ccc(CNC(=O)[C@@H]2Cc3c([nH]c4ccccc34)[C@@H](C3CC3)N2)cc1`, for which the Ratio IC50 in data set [1] turned out to be 36. Besides, in [2], the outcome was inactive. The IC50 (commonly the concentration at which inhibition is half-maximal) in data set [3] was found to be 3.25 nM; in [4], 118 nM. Further, the Activity in data set [5] worked out at 23.3%.
In the case of `O=C(NO)c1ccc(CNC(=O)[C@@H]2Cc3c([nH]c4ccccc34)[C@@H](c3ccccc3)N2)cc1`, the Ratio IC50 in [1] worked out at 140. Moreover, the outcome in data set [2] was inactive. Further, the IC50 in [3] is 5.3 nM; in data set [4], 742 nM. Moreover, the Activity in data set [5] stood at 23.3%.
For `O=C(NO)c1ccc(CNC(=O)[C@@H]2Cc3c([nH]c4ccccc34)[C@@H](C3CC3)N2Cc2ccc(Cl)cc2)cc1`, in [1], the Ratio IC50 came to 155. Further, the Activity entry in [6] was “Dose-Dependent Effect”; in data set [5], 23.3%. Moreover, the IC50 in [3] worked out at 11.2 nM; in data set [4], 1740 nM. Besides, the viability at 5 µM in data set [7] is 92.5%.
Take `O=C(NO)c1ccc(CNC(=O)[C@@H]2Cc3c([nH]c4ccccc34)[C@@H](C3CCCC3)N2)cc1`: the Ratio IC50 in [1] stood at 45. Moreover, in [2], the outcome was inactive. The IC50 in data set [3] was 4.54 nM; in data set [4] it was 204 nM. Moreover, the Activity in data set [5] came to 23.3%.
Consider `CN1CCc2c(c3ccccc3n2Cc2ccc(C(=O)NO)cc2)C1` [TUBASTATIN A], for which the viability at 5 µM in data set [7] stood at 77.6%. For the same molecule, the Activity in [5] is recorded as 26.7%.
As for `O=C(NO)c1ccc(CNC(=O)[C@@H]2Cc3c([nH]c4ccccc34)[C@@H](c3ccc(Cl)cc3)N2)cc1`, the Ratio IC50 in data set [1] turned out to be 137. Further, the outcome in [2] was inactive. Also, the figures for the IC50 in [3] and in [4] were 5.61 nM and 770 nM, respectively. In [5], the Activity is listed as 23.3%.
As to `COc1ccc(CN2[C@H](C)c3[nH]c4ccccc4c3C[C@H]2C(=O)NCc2ccc(C(=O)NO)cc2)cc1`, the IC50 was 34.2 nM in data set [3] and greater than 10000 nM in data set [4].
For `COc1ccc(CN2[C@H](C(=O)NCc3ccc(C(=O)NO)cc3)Cc3c([nH]c4ccccc34)[C@H]2C2CC2)cc1`, the figures for the Activity result in data set [6] and in data set [5] were “Dose-Dependent Effect” and 23.3%, respectively. For the same molecule, in data set [7], the viability at 5 µM is greater than 85%.
On to `O=C(NO)c1ccc(CNC(=O)[C@@H]2Cc3c([nH]c4ccccc34)[C@@H](c3ccc(Cl)cc3)N2CC2CC2)cc1`, for which the inhibition result in [8] is “Dose-Dependent Effect”. Besides, the IC50 is greater than 10000 nM in data set [9]; 1440 nM in [10]; 1280 nM in [4]; 1660 nM in data set [11]; greater than 10000 nM in data set [12]. The Activity entry in data set [6] was “Dose-Dependent Effect”; in data set [5] it was 47.1%. For the same molecule, the viability at 5 µM in data set [7] came out at 99.6%.
Turning to `O=C(NO)c1ccc(CNC(=O)[C@@H]2Cc3c([nH]c4ccccc34)[C@@H](C3CC3)N2Cc2ccccc2)cc1`, the Ratio IC50 in data set [1] turned out to be 134. For the same molecule, the values for the Activity result in data set [6] and in data set [5] were “Dose-Dependent Effect” and 23.3%, respectively. Also, the IC50 turned out to be 12.7 nM in [3] and 1700 nM in [4]. The viability at 5 µM in data set [7] was greater than 85%.
Turning to `O=C(NO)c1ccc(CNC(=O)[C@@H]2Cc3c([nH]c4ccccc34)[C@@H](c3ccc4c(c3)OCO4)N2)cc1`, the Activity entry in data set [13] was “Toxic”; in data set [5] it was 46.4%. The Ratio IC50 in [1] worked out at 108. The outcome in [2] was inactive. Moreover, the values for the IC50 in data set [3] and in data set [4] were 2 nM and 216 nM, respectively.
`COc1ccc([C@H]2N[C@H](C(=O)NCc3ccc(C(=O)NO)cc3)Cc3c2[nH]c2ccccc32)cc1OC`: the result in data set [2] was inactive. The same molecule showed an IC50 in data set [4] of 390 nM. The Activity in data set [5] was 23.3%.
